US20040097534A1, “Composition for the protection and regeneration of nerve cells containing berberine derivatives” (EUGENBIO INC., priority 2001, published 2004)
Several values for one entry are separate records, joined by “and”; a condition that tells them apart may be missing. Equal values may be shown once. Entries after “also recorded” stand apart in the source; their conditions may differ.

What was measured:
PC12 cells [1] = assay: MTT assay, PC12 survival under dexamethasone (glucocorticoid) stress; assay type: cell-based, rat
Description: (§1) Cell injuries under condition of serum deprivation-induced stress and oxidative stress were measured by MTT assay. For MTT assay, Cells were seeded into N2 medium in an amount of 7.5×10^3 cells, and then a neurotoxin or a nerve growth factor was added thereto to differentiate the cells and then 0.1 volume of 4 mg/ml MTT was further added. The mixture was stored at 37° C. for 3-4 hours. After 100 μl of solubilization buffer was added to the mixture and then stored for 24 hours, O.D. values were measured by ELISA assay.
Glucocorticoids are hormones secreted from the adrenal glands, and involve in a variety of metabolic processes including glycometabolism. In particular, stress causes release of glucocorticoids to reduce cell divisions of neuronal stem cells in the brain and induce apoptosis of nerve cells. Therefore, PC12 cells were treated with dexamethasone, a glucocorticoid derivative, to examine the effect of berberine against apoptosis of nerve cells. 3 hours after treatment with berberine, dexamethasone (1) was added to a culture solution and incubated for 2 days to induce neuroregeneration (see, Table 5 and FIG. 5b).

SH-SY5Y cells [2] = assay: MTT assay, SH-SY5Y survival under oxidative stress (H2O2); assay type: cell-based, human
Description: SH-SY5Y cells were treated with H2O2 for 30 minutes to induce cell injuries. 3 hours before the cells were treated with H2O2, berberine (0.25˜3.5 μg) was added to cell culture to examine its cell protection effect (see, Table 4 and FIG. 4b).

[3] = system: nerve cells in CA1, dentate gyrus and entorhinal cortex; assay: Animal model for dementia (ibotenic acid into entorhinal cortex), calbindin-positive neuron count; assay type: in vivo, rat
Description: After white rat brain was fixed with a stereotaxic frame, 1.5 μl (1 mg/ml) of ibotenic acid and PBS, or 1.5 μl (1 mg/ml) of berberine was injected into the entorhinal cortex region using a microinjector to prepare a model for dementia. […]
Brain was fixed with 4% paraformaldehyde and cryosected to a thickness of 40 μm, and then the cryosected brain was permeablized with 0.5% Triton X-100 for 20 minutes and blocked using 15% blocking serum for 2 hours. After reacting with anti-calbindin antibody at a temperature 4° C. for 16 hours and then further reacting with FITC-labeled secondary antibody or rhodamin (TRITC)-labeled secondary antibody for 1 hour, the cells were fixed on a slide before examining under a confocal microscope.
As an animal model for dementia, ibotenic acid was microinjected into the entorhinal cortex of adult rat brain using a stereotaxic frame.
First, an adult rat was anesthetized, and its head was fixed with a stereotaxic frame. Subsequently, 1.5 μl (1 mg/ml) of ibotenic acid was injected into the entorhinal cortex region to prepare a model for dementia, and then berberine was injected into the same site. 2 weeks after operation, brain tissue sections were counter-stained with hematocylin to examine apoptosis and protective effect. After fluorescence-staining the cells, regions used for cell count were represented as squares (FIG. 14). In addition, the cells were fluorescence-stained with calbindin antibody, a nerve-specific marker, to examine nerve cell survival (see, Tables 8 to 10, FIGS. 11 and 12).

SH-SY5Y cells [4] = assay: MTT assay, SH-SY5Y survival under serum deprivation-induced stress; assay type: cell-based, human; details: N2 + retinoic acid 5 μM
Description: as §1
In order to prepare a stroke-like cell model using SH-SY5Y, the cells were cultured under serum deprivation. […] Retinoic acid, which induces the differentiation of SH-SY5Y as a cell differentiation factor, was used as a positive control. 3 hours before depriving serum, the cells were treated with berberine (0.25˜3 μg). The cells were cultured in chemically defined media (N2) for 2 days to induce nerve regeneration (see, Table 2 and FIG. 4a).

SH-SY5Y cells [5] = assay: Neurite regeneration in SH-SY5Y cells; assay type: cell-based, human; details: retinoic acid
Description: (§2) Thereafter, the culture was treated with berberine and further cultured for 2 days. The cultured cells were immunostained with nerve cell-specific labeled molecule, and then the number of cells having neurites longer than cell bodies was counted under a confocal microscope. A positive control was treated with bFGF under the same condition as described above to induce the differentiation into nerve cells. In addition, the neuroregenerative effect was examined after berberine together with bFGF was treated. The differentiation degree was measured by double-staining neurites with nerve cell-specific labeled molecule (anti-neurofilament antibody) and FITC-labeled secondary antibody (green), followed by staining cell nuclei with propidium iodide (red). In order to examine the effect of berberine on neurite regeneration, SH-SY5Y cells were used as differentiated nerve cell lines. Retinoic acid inducing neurite growth was used as a positive control.

[6] = system: nerve cells highly sensitive to NMDA receptors; details: MK-801 to young rat (7-8-days old); cited from earlier work
PC12 cells [7] = assay: MTT assay, PC12 survival under serum deprivation-induced stress; assay type: cell-based, rat; details: RPMI + NGF 100 ng/ml
Description: as §1
NGF, increasing cell survival and inducing cell differentiation, was used as a positive control. After the cells were treated with berberine (0.25˜3 μg/ml), the cells were cultured for 2 days to induce nerve regeneration (see, Table 3 and FIG. 5a).

HiB5 cells [8] = system: HiB5 cells
Description: Since HiB5 cells derived from white rat embryonic hippocampus were prepared by retroviral infection of temperature sensitive SV40 large T antigen, they divided at […], but the cell division stopped at 39° C. (body temperature of rat). […] Cell culture medium was prepared by adding a mixture of 10% FBS (fetal bovine serum), penicillin/streptomycin, glutamine and sodium pyruvate (0.11 g/L) to DMEM. On differentiating at 39° C., another cell culture medium was prepared by adding pyruvate to a serum-free medium (N2, containing DMEM/F12, insulin, transferrin, Putreseine and BSA; Botten Stein & Sato., 1979). PC12 cells and SH-SY5Y cells were cultured in DMEM supplemented with 10% FBS. In order to differentiate the cells, NGF or retinoic acid was added to a serum-free medium.
as §1
HiB5 cell line used in this experiment was prepared by infecting primary cultured cells of temperature sensitive SV40 large T antigen in rat embryonic hippocampus (embryonic day 16) using retroviral vectors. The HiB5 cell line was divided at the permissive temperature (32° C.), but the cell division stopped at the non-permissive temperature (body temperature of rat: 39° C.). A small number of GABAegic neurons differentiated in the rat embryonic hippocampus (embryonic day 16), and glutamatergic pyramidal cell precursors still divided, some of which penetrated into dentate gyrus regions through dentate migration pathways in embryonic day 18 to differentiate into glutamatergic granule cells (Altman J., Bayer. S. A. (1990a) Prolonged sojourn of developing pyramidal cells in the intermediate zone of the hippocampus and their settling in the stratum pyramidale. J Comp Neurol. 301, 343-64.; Altman J., Das G. D. (1965) Post-natal origin of microneurones in the rat brain, Nature. 28, 953-956.). When cells stop their cell-division and start to differentiate in vivo, apoptosis occurs.
In order to evaluate the protective effect of berberine against apoptosis and the effect of increasing cell survival, HiB5 cells were cultured under conditions for initiation of differentiation. At this time, the culture was treated with berberine at various concentrations (50 ng/ml˜6 μg/ml). The protective effect of berberine against apoptosis was measured by MTT assay. A positive control group was treated with bFGF to block apoptosis, increase cell survival and induce the differentiation into nerve cells.
Since HiB5 neuronal stem cells undergo cell death during the differentiation, the cells were considered as a negative control group. The percentage of O.D. values is determined for the groups treated with bFGF and berberine, respectively.

HiB5 cells [9] = assay: Induction of differentiation of HiB5 cells into nerve cells (neurite count, confocal); assay type: cell-based, white rat; details: HiB5, bFGF positive control
Description: as §2, with “(red).” for “(red). In order to examine the effect of berberine on neurite regeneration, SH-SY5Y cells were used as differentiated nerve cell lines. Retinoic acid inducing neurite growth was used as a positive control.”

[10] = Ibotenic Acid alone (reference)
[11] = N2 + dexamethasone + NGF 100 ng/ml

Which results are given for `C[C@@H]1C[C@H]2[C@@H]3CCC4=CC(=O)C=C[C@]4(C)[C@@]3(F)[C@@H](O)C[C@]2(C)[C@@]1(O)C(=O)CO` [Dexamethasone, dexamethasone, reference compound]?
O.D. (PC12 cells [1]; N2 + dexamethasone 1 μM alone): 0.193; Average (O.D. relative to dexamethasone alone) (PC12 cells [1]; N2 + dexamethasone 1 μM alone (reference = 100%; N2 = 118%)): 100%

For `OO` [H2O2, reference compound], which O.D. (SH-SY5Y cells [2]; N2, H2O2 150 μM alone) is on record?
Its O.D. is 0.056.

And the “Average (O.D. relative to H2O2 alone)” value (SH-SY5Y cells [2]; N2, H2O2 150 μM alone (reference = 100%; N2 without H2O2 = 429%))?
The value was 100%.

With `N[C@H](C(=O)O)c1cc(=O)[nH]o1` [Ibotenic Acid, ibotenic acid, reference compound] as the compound, how does the “cell number relative to Ibotenic Acid average = 100, CA (individual animals #1-#3)” value ([3]; Ibotenic Acid alone) read?
Its value is 116 and 112 and 73.

What about the “cell number relative to Ibotenic Acid average = 100, DG (individual animals #1-#3)” value ([3]; Ibotenic Acid alone) of the same compound?
Its value is 123 and 105 and 72.

What about the “cell number relative to Ibotenic Acid average = 100, ENT (individual animals #1-#3)” value ([3]; Ibotenic Acid alone) of the same compound?
Its value is 100 and 105 and 94.

And the “cell number, CA (individual animals #1-#3)” value ([3]; Ibotenic Acid alone)?
The value was 57 and 55 and 36.

And the “cell number, CA, AVR” value ([3]; Ibotenic Acid alone)?
Its value is 49.3.

What about the “cell number, DG (individual animals #1-#3)” value ([3]; Ibotenic Acid alone) of the same compound?
The value was 227 and 193 and 133.

What about the “cell number, DG, AVR” value ([3]; Ibotenic Acid alone) of the same compound?
The value was 184.3.

What about the “cell number, ENT (individual animals #1-#3)” value ([3]; Ibotenic Acid alone) of the same compound?
The value was 73 and 77 and 68.

What about the “cell number, ENT, AVR” value ([3]; Ibotenic Acid alone) of the same compound?
Its value is 72.7.

What about the “cell number (%) relative to Ibotenic Acid, CA, average” value [3, 10] of the same compound?
The value was 100%.

What about the “cell number (%) relative to Ibotenic Acid, DG, average” value [3, 10] of the same compound?
Its value is 100%.

And the “cell number (%) relative to Ibotenic Acid, ENT, average” value [3, 10]?
The value was 100%.

And the “reduction of calbindin-positive neurons in the hippocampus and entorhinal cortex” value ([3]; ibotenic acid alone, 2 weeks after microinjection)?
The value was 30˜40%.

What about the “calbindin-positive neurons, recovery” value ([3]; ibotenic acid alone, 4 weeks after microinjection) of the same compound?
Its value is “recovered somewhat; also recorded: some of them were recovered”.

For `CC1=C(/C=C/C(C)=C/C=C/C(C)=C/C(=O)O)C(C)(C)CCC1` [Retinoic acid, reference compound], which O.D. (SH-SY5Y cells [4]; 2 days) is on record?
Its O.D. is 0.871.

And the “Average (O.D. relative to N2)” value (SH-SY5Y cells [4]; N2 = 100%)?
Its value is 130%.

And the “Average (O.D. relative to H2O2 alone)” value (SH-SY5Y cells [2]; N2, H2O2 + retinoic acid 5 μM)?
Its value is 321%.

And the O.D. (SH-SY5Y cells [2]; N2, H2O2 + retinoic acid 5 μM)?
Its O.D. is 0.179.

And the “Number of differentiated cells” value (SH-SY5Y cells [5]; N2 = 22.30)?
Its value is 18.91.

And the “total average cell numbers” value (SH-SY5Y cells [5]; N2 = 42.33)?
Its value is 24.75.

What about the “Average (%) of differentiated cells” value (SH-SY5Y cells [5]; N2 = 44.47) of the same compound?
The value was 81.59%.

For MK-801, which “number of dead nerve cells, of total nerve cells” value [6] is on record?
The value was 12-26%.

Which O.D. (PC12 cells [7]; 2 days) does the source give for “NGF: nerve growth factor, positive control in PC12 cells” here?
The O.D. was 0.349.

And the “Average (O.D. relative to RPMI)” value (PC12 cells [7]; RPMI = 100%)?
Its value is 208%.

What about the “Average (O.D. relative to dexamethasone alone)” value (PC12 cells [1]; [11]) of the same compound?
Its value is 147%.

What about the O.D. (PC12 cells [1]; [11]) of the same compound?
The O.D. was 0.283.

And the “cell survival rate increase” value (PC12 cells [1]; dexamethasone stress, 2 days)?
Its value is “about 1.5 times”.

What does the source list for “bFGF: basic fibroblast growth factor, positive control increasing HiB5 survival and differentiation”?
cell survival rate / protective effect against apoptosis, increase over control (HiB5 cells [8]; HiB5 under differentiation conditions, MTT): 1.5 times and 1.6 times; O.D. % (HiB5 cells [8]; bFGF 20 ng, control = 100): 150%; differentiation into nerve cells (morphology) (HiB5 cells [9]): induced the differentiation into nerve cells; also recorded: cell bodies got smaller and neurites got longer
